Measured values as given in patent US20100285964A1, “SALTS OF 2-IODO-N-[(4-METHOXY-6-METHYL-1,3, 5-TRIAZINE-2-YL) CARBAMOYL] BENZENESULFONAMIDE, METHOD FOR THE PRODUCTION THEREOF AND USE THEREOF AS HERBICIDES AND PLANT GROWTH REGULATORS” (BayerCropScience AG, priority 2007, published 2010).

Legend:
Assay type in all cases: in vivo
[1] = system: Matricaria inodora, Papaver rhoeas, Stellaria media and Viola tricolor; experiment: Pre-emergence herbicidal action, greenhouse; settings: pre-emergence method, application rate of 0.08 kg or less of active substance per hectare, scored after 3 to 4 weeks
Text: Seeds or rhizome pieces of mono- and dicotyledonous weeds were placed in sandy loam in cardboard pots and covered with soil. The compounds according to the invention, formulated in the form of wettable powders or emulsion concentrates, were then applied to the surface of the covering soil in the form of aqueous suspensions or emulsions at an application rate of 100 to 800 l of water/ha (converted), at various dosages.
After the treatment, the pots were placed in a greenhouse and kept under good growth conditions for the weeds. The visual scoring of the damage to the plants or the emergence damage was carried out after the emergence of the test plants after a test period of 3 to 4 weeks, by comparison with untreated controls. As shown by the results, the compounds according to the invention have good herbicidal pre-emergence activity against a broad spectrum of weed grasses and broad-leaved weeds.

[2] = system: Amaranthus retroflexus, Lolium multiflorum, Abuthilon theophrasti, Matricaria inodora, Ipomoea purpurea, Panicum minor, Stellaria media, Solanum nigrum …; experiment: Post-emergence herbicidal action, greenhouse; settings: post-emergence method, application rate of 0.08 kg or less of active substance per hectare, scored after about 10 to 28 days
Protocol: Seeds or rhizome pieces of monocotyledonous and dicotyledonous weeds were placed in sandy loam in plastic pots, covered with soil and cultivated in a greenhouse under good growth conditions. Three weeks after sowing, the test plants were treated at the three-leaf stage. The compounds according to the invention, formulated as wettable powders or as emulsion concentrates, were sprayed onto the green parts of the plants at various dosages using a water application rate of from 100 to 800 l/ha (converted).

[3] = system: Solanum nigrum; experiment: Post-emergence herbicidal action, field trial (Table A-1); settings: 20 g of ai/ha (acid equivalent for salts), 3-5-leaf stage, 25 days after application, 0%=no control, 100%=complete control
Text: (§1) In a direct comparison, under field trial conditions (time of application 3-5-leaf stage of the weeds examined), the activities of the weed control of the free acid “2-iodo-N-[(4-methoxy-6-methyl-1,3,5-triazin-2-yl)carbamoyl]benzenesulfonamide” known from DE 27 15 786 were compared to individual salts according to the invention of 2-iodo-N-[(4-methoxy-6-methyl-1,3,5-triazin-2-yl)carbamoyl]benzenesulfonamide (compound I-3 (potassium salt of 2-iodo-N-[(4-methoxy-6-methyl-1,3,5-triazin-2-yl)carbamoyl]benzenesulfonamide) and 1-4 (magnesium salt of 2-iodo-N-[(4-methoxy-6-methyl-1,3,5-triazin-2-yl)carbamoyl]benzenesulfonamide)), evaluation being carried out 25 days after application. With respect to the activity, both a representative of a monocotyledonous weed (Panicum minor) and a representative of a dicotyledonous weed (Solanum nigrum) were scored according to the scheme below:
(§2) 0%=no control 100%=complete control

[4] = system: Panicum minor; experiment: as above; settings: 20 g of ai/ha (acid equivalent for salts), 3-5-leaf stage, 25 days after application, 0%=no control, 100%=complete control
Text: as §1, §2

[5] = system: Pennisetum glauca; experiment: Post-emergence herbicidal action, outdoor trial (Table A-2); settings: 30 g of ai/ha (acid equivalent for salt), 2-4-leaf stage, 28 days after application
Text: (§3) In a further direct comparison, under outdoor trial conditions (time of application 2-4-leaf stage of the weeds examined), the activities of the weed control of the free acid “2-iodo-N-[(4-methoxy-6-methyl-1,3,5-triazin-2-yl)carbamoyl]benzene-sulfonamide” known from DE 27 15 786 were compared to the inventive Na^+ salt of 2-iodo-N-[(4-methoxy-6-methyl-1,3,5-triazin-2-yl)carbamoyl]benzenesulfonamide (compounds I-2 according to the invention) at various application rates, evaluation being carried out 28 days after application. With respect to the activity, the weeds Chenopodium album, Fagopyran repens and Pennisetum glauca were scored according to the scheme below:
as §2

[6] = system: Chenopodium album; experiment: as above; settings: 2-4-leaf stage, 28 days after application
Text: as §3, §2

[7] = system: Fagopyran repens; experiment: as above; settings: 2-4-leaf stage, 28 days after application
Text: as §3, §2

[8] = system: broad bean (Vicia faba); experiment: Replanting behavior, crop sown in treated soil; settings: scored after four weeks
Protocol: (§4) In further tests, various dosages of the test substances were worked into the soil. Subsequently, various crop plants were sown in plastic pots filled with the treated soil and cultivated in a greenhouse using a day/night rhythm of 22° C./14° C. After four weeks, the plants were scored according to the scheme below.
(§5) 0%=no damage 100%=complete damage

[9] = system: sugar beet; experiment: Replanting behavior, crop sown in treated soil; settings: scored after four weeks
Protocol: as §4, §5

[10] = system: oilseed rape (Brassica napus); experiment: Replanting behavior, crop sown in treated soil; settings: scored after four weeks
Protocol: as §4, §5

[11] = 15 g of ai/ha (acid equivalent for salt)
[12] = 30 g of ai/ha (acid equivalent for salt)
[13] = 0.1 g of ai/ha worked into the soil
[14] = 0.5 g of ai/ha worked into the soil
[15] = 1.9 g of ai/ha worked into the soil
[16] = 7.5 g of ai/ha worked into the soil
[17] = 30 g of ai/ha worked into the soil, 0%=no damage, 100%=complete damage

COc1nc(C)nc(NC(=O)NS(=O)(=O)c2ccccc2I)n1.[K] [Compound I-3, 2-Iodo-N-[(4-methoxy-6-methyl-1,3,5-triazin-2-yl)carbamoyl]benzenesulfonamide potassium salt]
herbicidal activity, pre-emergence (visual scoring) [1]: very good herbicidal activity
herbicidal activity, post-emergence (visual scoring) [2]: very good herbicidal activity
Solanum nigrum control in % [3]: 84%
Panicum minor control in % [4]: 30%

2-Iodo-N-[(4-methoxy-6-methyl-1,3,5-triazin-2-yl)carbamoyl]benzenesulfonamide tetrabutylammonium salt [Compound I-18]
herbicidal activity, pre-emergence (visual scoring) [1]: very good herbicidal activity
herbicidal activity, post-emergence (visual scoring) [2]: very good herbicidal activity

COc1nc(C)nc(NC(=O)NS(=O)(=O)c2ccccc2I)n1.NCCO [Compound I-19, 2-Iodo-N-[(4-methoxy-6-methyl-1,3,5-triazin-2-yl)carbamoyl]benzenesulfonamide-(2-hydroxyeth-1-yl)ammonium salt]
herbicidal activity, pre-emergence (visual scoring) [1]: very good herbicidal activity
herbicidal activity, post-emergence (visual scoring) [2]: very good herbicidal activity

2-Iodo-N-[(4-methoxy-6-methyl-1,3,5-triazin-2-yl)carbamoyl]benzenesulfonamide tetraethylammonium salt [Compound I-12]
herbicidal activity, pre-emergence (visual scoring) [1]: very good herbicidal activity
herbicidal activity, post-emergence (visual scoring) [2]: very good herbicidal activity

COc1nc(C)nc(NC(=O)NS(=O)(=O)c2ccccc2I)n1 [2-Iodo-N-[(4-methoxy-6-methyl-1,3,5-triazin-2-yl)carbamoyl]benzenesulfonamide, reference compound]
Solanum nigrum control in % [3]: 70%
Panicum minor control in % [4]: 0%
Pennisetum glauca Control in % [5]: 80%
Chenopodium album Control in % [6, 11]: 90%
Chenopodium album Control in % [6, 12]: 98%
Fagopyran repens Control in % [7, 11]: 25%
Fagopyran repens Control in % [7, 12]: 40%

COc1nc(C)nc(NC(=O)NS(=O)(=O)c2ccccc2I)n1.[Li] [Compound I-1, 2-Iodo-N-[(4-methoxy-6-methyl-1,3,5-triazin-2-yl)carbamoyl]benzenesulfonamide lithium salt]
herbicidal activity, pre-emergence (visual scoring) [1]: very good herbicidal activity
herbicidal activity, post-emergence (visual scoring) [2]: very good herbicidal activity

COc1nc(C)nc(NC(=O)NS(=O)(=O)c2ccccc2I)n1.[Mg] [Compound I-4, 2-Iodo-N-[(4-methoxy-6-methyl-1,3,5-triazin-2-yl)carbamoyl]benzenesulfonamide magnesium salt]
herbicidal activity, pre-emergence (visual scoring) [1]: very good herbicidal activity
herbicidal activity, post-emergence (visual scoring) [2]: very good herbicidal activity
Solanum nigrum control in % [3]: 85%
Panicum minor control in % [4]: 48%

COc1nc(C)nc(NC(=O)NS(=O)(=O)c2ccccc2I)n1.[Na] [Compound I-2, 2-Iodo-N-[(4-methoxy-6-methyl-1,3,5-triazin-2-yl)carbamoyl]benzenesulfonamide sodium salt]
herbicidal activity, pre-emergence (visual scoring) [1]: very good herbicidal activity
herbicidal activity, post-emergence (visual scoring) [2]: very good herbicidal activity
Vicia faba damage in % [8, 13]: 2.5%
Vicia faba damage in % [8, 14]: 2.5%
Vicia faba damage in % [8, 15]: 2.5%
Vicia faba damage in % [8, 16]: 49%
Vicia faba damage in % [8, 17]: 93%
Sugar beet damage in % [9, 13]: 0%
Sugar beet damage in % [9, 14]: 1%
Sugar beet damage in % [9, 15]: 61%
Sugar beet damage in % [9, 16]: 85%
Sugar beet damage in % [9, 17]: 92%
Brassica napus damage in % [10, 13]: 0%
Brassica napus damage in % [10, 14]: 1%
Brassica napus damage in % [10, 15]: 29%
Brassica napus damage in % [10, 16]: 83%
Brassica napus damage in % [10, 17]: 94%
Pennisetum glauca Control in % [5]: 85%
Chenopodium album Control in % [6, 11]: 93%
Chenopodium album Control in % [6, 12]: 100%
Fagopyran repens Control in % [7, 11]: 30%
Fagopyran repens Control in % [7, 12]: 45%
